Data published in patent publication US20040097421A1 (priority 2000, published 2004).
Counter-ions that a name gives are not always drawn. Like-named read-outs stand apart in the source and are kept apart here.

Assays:
[1] = system: solid fresh human tumour specimens (PHTC); format: cell-based
[2] = system: panel of ten human tumour cell lines; format: cell-based
[3] = system: U-1752 (non-small cell lung cancer); test: cells; format: cell-based; settings: Homo sapiens, read-out: IC50 (μM), U-1752
[4] = system: NCI-H611 (non-small cell lung cancer); test: cells; format: cell-based; settings: Homo sapiens, read-out: IC50 (μM), NCI-H611
[5] = system: U-1568 (non-small cell lung cancer); test: cells; format: cell-based; settings: Homo sapiens, read-out: IC50 (μM), U-1568
[6] = system: U1906L (small cell lung cancer); test: cells; format: cell-based; settings: Homo sapiens, read-out: IC50 (μM), U1906L
[7] = system: U1285 (small cell lung cancer); test: cells; format: cell-based; settings: Homo sapiens, read-out: IC50 (μM), U1285
[8] = system: U-1906E (small cell lung cancer); test: cells; format: cell-based; settings: Homo sapiens, read-out: IC50 (μM), U-1906E
[9] = system: U1690 (small cell lung cancer); test: cells; format: cell-based; settings: Homo sapiens, read-out: IC50 (μM), U1690
[10] = system: hematological fresh human tumour specimens (PHTC); format: cell-based
[11] = system: CEM/S (leukemia CCRF-CEM); test: cells; format: cell-based; settings: Homo sapiens, 72 h, read-out: IC50 (μM), CEM/S
[12] = system: 8226S (myeloma RPMI 8226); test: cells; format: cell-based, human; settings: read-out: IC50 (μM), 8226S
[13] = system: fresh human tumour specimens (fourteen hematological, thirteen solid); test: FMCA, IC50 comparison in 27 fresh human tumour specimens; format: cell-based; settings: 27 human tumour samples, 82 to 0.131 μM
[14] = system: H69AR (doxorubicin resistance subline); format: cell-based, human
[15] = system: Ovarian carcinoma tumor cell system; test: Cytotoxic activity in different tumor models, ovarian carcinoma; format: cell-based, human; settings: Number 8
[16] = system: Breast cancer tumor cell system; test: Cytotoxic activity in different tumor models, breast cancer; format: cell-based, human; settings: Number 4
[17] = system: NSC Lung cancer tumor cell system; test: Cytotoxic activity in different tumor models, NSC lung cancer; format: cell-based, human; settings: Number 8
[18] = system: Corpus cancer tumor cell system; test: Cytotoxic activity in different tumor models, corpus cancer; format: cell-based, human; settings: Number 4
[19] = system: Adenocarcinoma tumor cell system; test: Cytotoxic activity in different tumor models, adenocarcinoma; format: cell-based, human; settings: Number 5
[20] = system: 27 PHTC samples from 9 patients with hematological and 18 patients with solid tumours; test: Circumvention of melphalan resistance, FMCA classification of PHTC samples; format: cell-based, human; settings: 4 μM
[21] = system: solid tumour types, cell lines and primary cultures of human tumour cells from patients; test: Tumour type specific spectrum of antitumour activity, solid tumour types; format: cell-based; settings: for Activity in the listed diagnoses of Table 5: 4.0 μM; for Activity against solid tumour types (activity = at least 50% reduction in tumour cell survival): cell lines and PHTC
[22] = system: hematological tumors, primary cultures of human tumor cells from patients (PHTC); format: cell-based
[23] = system: solid tumors, primary cultures of human tumor cells from patients (PHTC); format: cell-based
[24] = system: Prostate cancer tumor cell system; test: Cytotoxic activity in different tumor models, prostate cancer; format: cell-based, human; settings: Number 1
[25] = system: U937vcr (vincristine resistance subline); format: cell-based, human
RPMI 8322 melanoma cells = settings: cited from earlier work
sarcoma 45 = settings: rats; cited from earlier work
[26] = system: mitochondria from rat liver homogenates and Jensen sarcoma cells; settings: cited from earlier work

Q: With `Nc1ccn([C@@H]2O[C@H](CO)[C@@H](O)[C@@H]2O)c(=O)n1` [AraC] as the molecule, how does the “Tumor cell survival index %, Solid (n = 22)” value [1] read?
A: 102%

Q: Which “IC50 (μM), MEAN” value [2] does the source give for `N.N.[Cl][Pt][Cl]` [Cisplatin, cisplatin] here?
A: 18.0 µM

Q: With `CC(=O)O[C@@]12CO[C@@H]1C[C@H](O)[C@@]1(C)C(=O)[C@H](O)C3=C(C)[C@@H](OC(=O)[C@H](O)[C@@H](NC(=O)OC(C)(C)C)c4ccccc4)C[C@@](O)([C@@H](OC(=O)c4ccccc4)[C@H]21)C3(C)C` [Docetaxel, docetaxel] as the molecule, how does the “Tumor cell survival index %, Solid (n = 22)” value [1] read?
A: 67%

Q: And the IC50 [3]?
A: 0.46 µM

Q: And the IC50 [4]?
A: 1.1 µM

Q: And the IC50 [5]?
A: 5.94 µM

Q: What about the IC50 [6] of the same molecule?
A: 0.1 µM

Q: What about the IC50 [7] of the same molecule?
A: 0.1 µM

Q: And the IC50 [8]?
A: 0.1 µM

Q: What about the IC50 [9] of the same molecule?
A: 7.7 µM

Q: For `COc1cccc2c1C(=O)c1c(O)c3c(c(O)c1C2=O)C[C@@](O)(C(=O)CO)C[C@@H]3O[C@H]1C[C@H](N)[C@H](O)[C@H](C)O1` [Doxorubicin, doxorubicin], which “Tumor cell survival index %, Hematological (n = 42)” value [10] is on record?
A: 29%

Q: And the “Tumor cell survival index %, Solid (n = 22)” value [1]?
A: 97%

Q: What about the IC50 [11] of the same molecule?
A: 0.18 µM

Q: What about the IC50 ([12]; Homo sapiens, RPMI-8226, 72 h) of the same molecule?
A: 0.13 µM

Q: What about the “IC50 (μM), MEAN” value [2] of the same molecule?
A: 3.51 µM

Q: And the IC50 [3]?
A: 0.42 µM

Q: And the IC50 [4]?
A: ≥ 183 µM

Q: And the IC50 [5]?
A: ≥ 183 µM

Q: And the IC50 [6]?
A: 0.92 µM

Q: And the IC50 [7]?
A: 0.52 µM

Q: And the IC50 [8]?
A: 0.44 µM

Q: And the IC50 [9]?
A: 2.21 µM

Q: What does the source list for `COc1cc([C@@H]2c3cc4c(cc3[C@@H](O[C@@H]3O[C@@H]5CO[C@@H](C)O[C@H]5[C@H](O)[C@H]3O)[C@H]3COC(=O)[C@H]23)OCO4)cc(OC)c1O` [Etoposide, etoposide]?
A: Tumor cell survival index %, Hematological (n = 42) [10]: 47%; Tumor cell survival index %, Solid (n = 22) [1]: 81%

Q: With `CCOC(=O)[C@H](Cc1ccc(F)cc1)NC(=O)[C@@H](N)Cc1ccc(N(CCCl)CCCl)cc1.Cl` [Example J1, L-Melphalanyl-L-p-fluorophenylalanine ethyl ester hydrochloride] as the molecule, how does the “Comparison of IC50s (FIG. 2)” value [13] read?
A: in all cases was more active than P2

Q: And the IC50 [14]?
A: 0.9 µM

Q: And the “Median response at 4.0 μM >50% reduction in tumor cell survival” value (from here on “Median response at 4.0 μM >50% reduction”) [15]?
A: Yes

Q: And the “Median response at 4.0 μM >50% reduction” value [16]?
A: Yes

Q: And the “Median response at 4.0 μM >50% reduction” value [17]?
A: Yes

Q: What about the “Median response at 4.0 μM >50% reduction” value [18] of the same molecule?
A: No

Q: What about the “Median response at 4.0 μM >50% reduction” value [19] of the same molecule?
A: Yes

Q: What about the “Number of samples classified EDR (extreme drug resistance)” value [20] of the same molecule?
A: 1

Q: And the “Number of samples classified IDR (intermediate drug resistance)” value [20]?
A: 3

Q: And the “Samples classified EDR (%)” value [20]?
A: 6%

Q: And the “Activity in the listed diagnoses of Table 5” value [21]?
A: active in most of these diagnoses

Q: And the “Activity against solid tumour types (activity = at least 50% reduction in tumour cell survival)” value [21]?
A: showed activity against several types of solid tumours

Q: Which results are given for `CCOC(=O)[C@H](Cc1ccc(F)cc1)NC(=O)[C@H](Cc1ccc(N(CCCl)CCCl)cc1)NC(=O)[C@@H]1CCCN1.Cl` [Example J3, L-Prolinyl-L-melphalanyl-L-p-fluorophenylalanine ethyl ester hydrochloride]?
A: Activity against hematological PHTC samples compared to melphalan and sarcolysine [22]: more active; Tumor cell survival index (%), Hematological tumors n = 7-11 [22]: 7%; Activity against solid tumor samples compared to melphalan, sarcolysine and P2 [23]: more active; Median response at 4.0 μM >50% reduction in tumor cell survival [15]: Yes; Median response at 4.0 μM >50% reduction in tumor cell survival [16]: Yes; Median response at 4.0 μM >50% reduction in tumor cell survival [17]: Yes; Median response at 4.0 μM >50% reduction in tumor cell survival [24]: Yes; Median response at 4.0 μM >50% reduction in tumor cell survival [18]: Yes; Median response at 4.0 μM >50% reduction in tumor cell survival [19]: Yes; Number of samples classified EDR (extreme drug resistance) [20]: 0 (0%); Number of samples classified IDR (intermediate drug resistance) [20]: 4; Samples classified EDR (%) [20]: 0 (0%); Activity in the listed diagnoses of Table 5 [21]: active; Activity against solid tumour types (activity = at least 50% reduction in tumour cell survival) [21]: showed activity against several types of solid tumours

Q: Which “Comparison of IC50s (FIG. 2)” value [13] does the source give for `CCOC(=O)[C@H](Cc1ccc(F)cc1)NC(=O)[C@H](Cc1cccc(N(CCCl)CCCl)c1)NC(=O)[C@@H]1CCCN1` [Example P2, L-prolyl-m-L-sarcolysyl-p-L-fluorophenylalanine ethyl ester hydrochloride] here?
A: more active than melphalan

Q: And the IC50 [25]?
A: 1.77 µM

Q: And the “Tumor cell survival index (%), Hematological tumors n = 7-11” value [22]?
A: 7%

Q: And the “Median response at 4.0 μM >50% reduction” value [15]?
A: No

Q: And the “Median response at 4.0 μM >50% reduction” value [16]?
A: No

Q: What about the “Median response at 4.0 μM >50% reduction” value [17] of the same molecule?
A: No

Q: What about the “Median response at 4.0 μM >50% reduction” value [24] of the same molecule?
A: No

Q: And the “Median response at 4.0 μM >50% reduction” value [18]?
A: No

Q: What about the “Median response at 4.0 μM >50% reduction” value [19] of the same molecule?
A: No

Q: What about the “Number of samples classified EDR (extreme drug resistance)” value [20] of the same molecule?
A: 1

Q: And the “Number of samples classified IDR (intermediate drug resistance)” value [20]?
A: 4

Q: What about the “Samples classified EDR (%)” value [20] of the same molecule?
A: 5%

Q: And the “Activity in the listed diagnoses of Table 5” value [21]?
A: inactive

Q: What about the “Toxicity to RPMI 8322 melanoma cells compared with the other PTC peptides” value (RPMI 8322 melanoma cells) of the same molecule?
A: more toxic

Q: For `CCOC(=O)[C@H](Cc1ccccc1)NC(=O)[C@@H](N)Cc1ccc(N(CCCl)CCCl)cc1.Cl` [JV22, L-Melphalanyl-L-phenylalanine ethyl ester hydrochloride], which “IC50 (μM), MEAN” value [2] is on record?
A: 0.48 µM

Q: With `CCOC(=O)[C@H](Cc1ccc(O)cc1)NC(=O)[C@@H](N)Cc1ccc(N(CCCl)CCCl)cc1.Cl` [JV24, L-Melphalanyl-L-tyrosine ethyl ester hydrochloride] as the molecule, how does the “IC50 (μM), MEAN” value [2] read?
A: 1.05 µM

Q: For `CCOC(=O)[C@H](Cc1ccc(N(CCCl)CCCl)cc1)NC(=O)[C@@H](N)Cc1ccc(N(CCCl)CCCl)cc1` [JV27, L-Melphalanyl-L-melphalan ethyl ester hydrochloride], which IC50 [12] is on record?
A: 1.01 µM

Q: What does the source list for `CC(C)OC(=O)[C@H](Cc1ccc(F)cc1)NC(=O)[C@@H](N)Cc1ccc(N(CCCl)CCCl)cc1.Cl` [JV28, L-Melphalanyl-L-p-fluorophenylalanine isopropyl ester hydrochloride]?
A: Activity against hematological PHTC samples compared to melphalan and sarcolysine [22]: more active; Activity against solid tumor samples compared to melphalan, sarcolysine and P2 [23]: more active; Median response at 4.0 μM >50% reduction in tumor cell survival [15]: Yes; Median response at 4.0 μM >50% reduction in tumor cell survival [16]: Yes; Median response at 4.0 μM >50% reduction in tumor cell survival [17]: Yes; Median response at 4.0 μM >50% reduction in tumor cell survival [24]: Yes; Median response at 4.0 μM >50% reduction in tumor cell survival [19]: Yes; Number of samples classified EDR (extreme drug resistance) [20]: 1; Number of samples classified IDR (intermediate drug resistance) [20]: 2; Samples classified EDR (%) [20]: 6%; Activity in the listed diagnoses of Table 5 [21]: active in most of these diagnoses; Activity against solid tumour types (activity = at least 50% reduction in tumour cell survival) [21]: showed activity against several types of solid tumours

Q: What does the source list for `CC[C@]1(O)C[C@H]2CN(CCc3c([nH]c4ccccc34)[C@@](C(=O)OC)(c3cc4c(cc3OC)N(C=O)[C@H]3[C@@](O)(C(=O)OC)[C@H](OC(C)=O)[C@]5(CC)C=CCN6CC[C@]43[C@@H]65)C2)C1` [Vincristine, vincristine]?
A: Tumor cell survival index %, Hematological (n = 42) [10]: 39%; Tumor cell survival index %, Solid (n = 22) [1]: 93%; IC50 [11]: 0.08 µM; IC50 ([12]; Homo sapiens, RPMI-8226, 72 h): 0.01 µM; IC50 (μM), MEAN [2]: 30.1 µM

Q: For `CCC1=C[C@@H]2CN(C1)Cc1c([nH]c3ccccc13)[C@@](C(=O)OC)(c1cc3c(cc1OC)N(C)[C@H]1[C@@](O)(C(=O)OC)[C@H](OC(C)=O)[C@]4(CC)C=CCN5CC[C@]31[C@@H]54)C2` [Vinorelbine, vinorelbine], which “Tumor cell survival index %, Hematological (n = 42)” value [10] is on record?
A: 50%

Q: And the “Tumor cell survival index %, Solid (n = 22)” value [1]?
A: 73%

Q: Which “Sarcoma 45 growth” value (sarcoma 45) does the source give for `CCOC(=O)[C@H](CC(C)C)NC(=O)[C@H](Cc1ccc(N(CCCl)CCCl)cc1)NC(C)=O` [asaley] here?
A: inhibited

Q: Which “Sarcoma 45 growth” value (sarcoma 45) does the source give for `CCOC(=O)[C@H](Cc1ccc(O)cc1)NC(=O)[C@H](Cc1ccc(N(CCCl)CCCl)cc1)NC(C)=O` [astyron, N-acetyl-L-melphalanyl-L-tyrosine ethyl ester] here?
A: inhibited

Q: For `CC(C)[C@H](NC(=O)[C@@H](N)Cc1ccc(N(CCCl)CCCl)cc1)C(=O)O` [salin, L-melphalanyl-L-valine], which “Oxidative phosphorylation in mitochondria” value [26] is on record?
A: disrupted
